Results as given in ChEMBL document CHEMBL1151840, “Synthetic oligoribonucleotides containing arabinonucleotides act as agonists of TLR7 and 8” (Bioorg Med Chem Lett, 2009).

Tested on: Serum
Experiment: Stability in human serum assessed as full-length compound remaining after 10 mins by anion-exchange HPLC
Type: ADME, cell-free
Details: 10 min

Stability: 75%
Structure (SMILES): Nc1ccn([C@@H]2O[C@H](COP(=O)(S)O[C@H]3[C@@H](O)[C@H](n4cnc5c(N)ncnc54)O[C@@H]3COP(=O)(S)O[C@H]3[C@@H](O)[C@H](n4cnc5c(=O)[nH]c(N)nc54)O[C@@H]3COP(=O)(S)O[C@H]3[C@@H](O)[C@H](n4ccc(=O)[nH]c4=O)O[C@@H]3COP(=O)(S)O[C@H]3[C@@H](O)[C@H](n4cnc5c(=O)[nH]c(N)nc54)O[C@@H]3COP(=O)(S)O[C@H]3[C@@H](O)[C@H](n4ccc(=O)[nH]c4=O)O[C@@H]3COP(=O)(S)O[C@H]3[C@@H](O)[C@H](n4cnc5c(=O)[nH]c(N)nc54)O[C@@H]3COP(=O)(S)O[C@H]3[C@@H](O)[C@H](n4ccc(=O)[nH]c4=O)O[C@@H]3COP(=O)(S)O[C@H]3[C@@H](O)[C@H](n4ccc(=O)[nH]c4=O)O[C@@H]3COP(=O)(S)O[C@H]3[C@@H](O)[C@H](n4cnc5c(=O)[nH]c(N)nc54)O[C@@H]3COP(=O)(S)O[C@H]3[C@@H](O)[C@H](n4ccc(=O)[nH]c4=O)O[C@H]3CO)[C@@H](OP(=O)(S)OCC(O)COP(=O)(S)O[C@H]3[C@@H](O)[C@H](n4ccc(N)nc4=O)O[C@@H]3COP(=O)(S)O[C@H]3[C@@H](O)[C@H](n4cnc5c(N)ncnc54)O[C@@H]3COP(=O)(S)O[C@H]3[C@@H](O)[C@H](n4cnc5c(=O)[nH]c(N)nc54)O[C@@H]3COP(=O)(S)O[C@H]3[C@@H](O)[C@H](n4ccc(=O)[nH]c4=O)O[C@@H]3COP(=O)(S)O[C@H]3[C@@H](O)[C@H](n4cnc5c(=O)[nH]c(N)nc54)O[C@@H]3COP(=O)(S)O[C@H]3[C@@H](O)[C@H](n4ccc(=O)[nH]c4=O)O[C@@H]3COP(=O)(S)O[C@H]3[C@@H](O)[C@H](n4cnc5c(=O)[nH]c(N)nc54)O[C@@H]3COP(=O)(S)O[C@H]3[C@@H](O)[C@H](n4ccc(=O)[nH]c4=O)O[C@@H]3COP(=O)(S)O[C@H]3[C@@H](O)[C@H](n4ccc(=O)[nH]c4=O)O[C@@H]3COP(=O)(S)O[C@H]3[C@@H](O)[C@H](n4cnc5c(=O)[nH]c(N)nc54)O[C@@H]3COP(=O)(S)O[C@H]3[C@@H](O)[C@H](n4ccc(=O)[nH]c4=O)O[C@@H]3CO)[C@H]2O)c(=O)n1 (stereo in doubt; 5)
